Experimental data: ChEMBL document CHEMBL1909046, “DrugMatrix in vitro pharmacology data”

Experiments:
[1] = DRUGMATRIX: Glutamate, NMDA, Agonism radioligand binding (ligand: [3H] CGP-39653); format: cell membranes, Rattus norvegicus, Wistar, Cerebral cortex, Membrane; settings: Not Active = under 50% inhibition at 10 µM
[2] = target: T1, Endothelin-1 receptor (Homo sapiens, UniProt P25101); format: cell membranes, Membrane; settings: cho-k1; further: in other assays of this panel Not Active means under 50% inhibition at 10 µM
T1 sequence (P25101 whole entry): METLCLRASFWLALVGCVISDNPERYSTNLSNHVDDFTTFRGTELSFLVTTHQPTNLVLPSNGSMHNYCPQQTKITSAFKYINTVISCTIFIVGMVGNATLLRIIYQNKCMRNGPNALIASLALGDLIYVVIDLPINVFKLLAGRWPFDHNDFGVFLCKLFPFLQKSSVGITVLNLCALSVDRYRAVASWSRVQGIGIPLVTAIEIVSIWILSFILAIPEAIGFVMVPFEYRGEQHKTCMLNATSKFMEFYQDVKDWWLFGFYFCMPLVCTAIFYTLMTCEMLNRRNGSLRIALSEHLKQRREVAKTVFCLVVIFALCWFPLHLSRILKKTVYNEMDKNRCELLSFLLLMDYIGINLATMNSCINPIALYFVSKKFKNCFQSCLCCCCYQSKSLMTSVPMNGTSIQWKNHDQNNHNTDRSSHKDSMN

[3] = target: Mitogen-activated protein kinase 14 (Homo sapiens, UniProt Q16539); set-up: species or system Escherichia coli;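 further: inhibition of p38alpha enzyme activity in a biochemical kinase assay, with myelin basic protein serving as substrate; in other assays of this panel Not Active means under 50% inhibition at 10 µM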
[4] = target: T2, Alpha-1A adrenergic receptor (Rattus norvegicus, UniProt P43140); test: DRUGMATRIX: Alpha-1A adrenergic receptor radioligand binding (ligand: prazosin); format: cell membranes, Wistar, Submaxillary gland, Membrane; settings: Not Active = under 50% inhibition at 10 µM
T2 sequence (P43140 whole entry): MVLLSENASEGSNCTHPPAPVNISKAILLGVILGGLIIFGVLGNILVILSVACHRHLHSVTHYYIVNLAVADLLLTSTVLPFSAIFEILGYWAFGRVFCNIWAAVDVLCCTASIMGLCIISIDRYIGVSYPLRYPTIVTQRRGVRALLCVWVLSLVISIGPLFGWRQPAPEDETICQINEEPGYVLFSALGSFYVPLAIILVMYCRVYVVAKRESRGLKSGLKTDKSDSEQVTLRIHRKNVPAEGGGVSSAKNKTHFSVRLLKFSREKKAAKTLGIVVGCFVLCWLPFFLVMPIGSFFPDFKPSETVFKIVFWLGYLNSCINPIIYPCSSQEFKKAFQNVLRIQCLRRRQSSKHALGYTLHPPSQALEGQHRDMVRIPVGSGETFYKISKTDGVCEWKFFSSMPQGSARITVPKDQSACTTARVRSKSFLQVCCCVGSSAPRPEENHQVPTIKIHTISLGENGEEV

[5] = target: T3, Cathepsin G (Homo sapiens, UniProt P08311); format: tissue-based; settings: neutrophil;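 further: inhibition of Cathepsin G enzyme activity, tested on an AMC-conjugated peptide substrate; in other assays of this panel Not Active means under 50% inhibition at 10 µM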
T3 sequence (P08311 whole entry): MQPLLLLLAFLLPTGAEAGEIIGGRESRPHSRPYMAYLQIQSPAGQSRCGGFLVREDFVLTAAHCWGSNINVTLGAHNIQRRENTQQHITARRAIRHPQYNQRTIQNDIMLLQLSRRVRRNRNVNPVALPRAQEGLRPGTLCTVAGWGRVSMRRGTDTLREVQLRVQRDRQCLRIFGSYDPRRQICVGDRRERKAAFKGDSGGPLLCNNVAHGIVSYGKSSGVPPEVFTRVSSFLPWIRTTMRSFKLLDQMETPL

[6] = DRUGMATRIX: Sigma2 radioligand binding (ligand: [3H] Ifenprodil); format: cell membranes, Rattus norvegicus, Wistar, Brain, Membrane; settings: Not Active = under 50% inhibition at 10 µM
[7] = target: C-C chemokine receptor type 5 (Homo sapiens, UniProt P51681); format: cell membranes, HEK293, Membrane; further: in other assays of this panel Not Active means under 50% inhibition at 10 µM
[8] = target: T4, D(4) dopamine receptor (Homo sapiens, UniProt P21917); test: DRUGMATRIX: Dopamine D4.2 radioligand binding (ligand: [3H] Spiperone); format: cell membranes, Membrane; settings: cho-k1; Not Active = under 50% inhibition at 10 µM
T4 sequence (P21917 whole entry): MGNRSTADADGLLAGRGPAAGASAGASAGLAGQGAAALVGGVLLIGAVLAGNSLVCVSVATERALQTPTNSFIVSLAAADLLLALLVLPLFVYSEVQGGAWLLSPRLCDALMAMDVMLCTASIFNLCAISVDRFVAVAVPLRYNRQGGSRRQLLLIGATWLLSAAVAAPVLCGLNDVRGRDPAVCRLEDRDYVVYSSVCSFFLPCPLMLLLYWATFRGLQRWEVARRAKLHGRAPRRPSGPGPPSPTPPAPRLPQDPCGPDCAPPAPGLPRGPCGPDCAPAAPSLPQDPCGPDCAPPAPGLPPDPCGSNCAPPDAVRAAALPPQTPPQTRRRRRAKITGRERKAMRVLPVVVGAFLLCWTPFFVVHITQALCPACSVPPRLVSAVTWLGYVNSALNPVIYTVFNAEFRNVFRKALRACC

Sequence of Mitogen-activated protein kinase 14 (Q16539 whole entry): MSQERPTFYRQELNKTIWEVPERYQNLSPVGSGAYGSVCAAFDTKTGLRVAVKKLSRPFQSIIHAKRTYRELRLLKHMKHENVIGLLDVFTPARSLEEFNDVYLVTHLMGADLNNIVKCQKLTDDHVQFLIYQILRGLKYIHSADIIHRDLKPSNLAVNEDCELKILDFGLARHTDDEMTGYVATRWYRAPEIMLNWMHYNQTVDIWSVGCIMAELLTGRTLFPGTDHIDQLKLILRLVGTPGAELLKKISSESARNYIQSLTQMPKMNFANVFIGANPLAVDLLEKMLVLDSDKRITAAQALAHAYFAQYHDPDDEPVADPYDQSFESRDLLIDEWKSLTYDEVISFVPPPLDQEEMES
Sequence of C-C chemokine receptor type 5 (P51681 whole entry): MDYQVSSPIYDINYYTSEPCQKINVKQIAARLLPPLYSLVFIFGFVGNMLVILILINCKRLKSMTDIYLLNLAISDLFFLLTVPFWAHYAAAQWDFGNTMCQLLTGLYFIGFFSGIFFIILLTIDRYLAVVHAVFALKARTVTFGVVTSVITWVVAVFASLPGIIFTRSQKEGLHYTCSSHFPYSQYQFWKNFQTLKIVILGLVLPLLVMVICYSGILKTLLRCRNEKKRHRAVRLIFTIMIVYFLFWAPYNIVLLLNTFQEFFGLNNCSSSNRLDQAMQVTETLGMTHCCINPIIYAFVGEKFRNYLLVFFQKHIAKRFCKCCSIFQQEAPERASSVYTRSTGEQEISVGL

Structure (SMILES)	IC50 [1]	Ki [1]	IC50 [2]	IC50 [3]	IC50 [4]	IC50 [5]	IC50 [6]	Ki [6]	IC50 ([7]; hek293)	IC50 [8]	IC50 ([7]; read-out: IC50) [nM]	Ki ([7]; read-out: Ki) [nM]	Ki [2]
C[C@]1(Cn2ccnn2)[C@H](C(=O)O)N2C(=O)C[C@H]2S1(=O)=O [TAZOBACTAM]	Not Active	Not Active	Not Active	Not Active	Not Active	Not Active	Not Active	Not Active	Not Active	Not Active			
CN1C(C(=O)Nc2ccccn2)=C(O)c2sccc2S1(=O)=O [TENOXICAM]	Not Active	Not Active	Not Active	Not Active	Not Active	Not Active	Not Active	Not Active	Not Active	Not Active			
CC(C)(C)c1ccc(C(O)CCCN2CCC(C(O)(c3ccccc3)c3ccccc3)CC2)cc1 (stereo unspecified) [TERFENADINE]	Not Active	Not Active	Not Active	Not Active	Not Active	Not Active	Not Active	Not Active		Not Active	1100	852	
O=C1CCC(N2C(=O)c3ccccc3C2=O)C(=O)N1 (stereo unspecified) [THALIDOMIDE]	Not Active	Not Active	Not Active	Not Active	Not Active	Not Active	Not Active	Not Active	Not Active	Not Active			
Cc1cccc(Nc2ccncc2S(=O)(=O)NC(=O)NC(C)C)c1 [TORSEMIDE]	Not Active	Not Active	Not Active	Not Active	Not Active	Not Active	Not Active	Not Active	Not Active	Not Active			
CC(C)C[C@H](NC(=O)[C@@H](O)[C@H](N)Cc1ccccc1)C(=O)O [UBENIMEX]	Not Active	Not Active	Not Active	Not Active	Not Active	Not Active	Not Active	Not Active	Not Active	Not Active			
Cc1onc(-c2ccccc2)c1-c1ccc(S(N)(=O)=O)cc1 [VALDECOXIB]	Not Active	Not Active		Not Active	Not Active	Not Active	Not Active	Not Active	Not Active	Not Active			Not Active
CC[C@]1(O)C[C@@H]2CN(CCc3c([nH]c4ccccc34)[C@@](C(=O)OC)(c3cc4c(cc3OC)N(C)[C@H]3[C@@](O)(C(=O)OC)[C@H](OC(C)=O)[C@]5(CC)C=CCN6CC[C@]43[C@@H]65)C2)C1 [VINBLASTINE]	Not Active	Not Active	Not Active	Not Active	Not Active	Not Active	Not Active	Not Active	Not Active	Not Active			
CC(=O)CC(c1ccccc1)c1c(O)c2ccccc2oc1=O (stereo unspecified) [WARFARIN]	Not Active	Not Active	Not Active	Not Active	Not Active	Not Active	Not Active	Not Active	Not Active	Not Active			
C[C@@H](N)[C@H]1CC[C@H](C(=O)Nc2ccncc2)CC1 [Y-27632]	Not Active	Not Active	Not Active	Not Active	Not Active	Not Active	Not Active	Not Active	Not Active	Not Active			
[Cl-].[Cl-].[Zn+2] [ZINC CHLORIDE]	Not Active	Not Active	Not Active	Not Active	Not Active	Not Active	Not Active	Not Active	Not Active	Not Active			
